Test results as given in patent US6558900B2, “Regulation of apoptosis and in vitro model for studies thereof” (Emory University, priority 1996, dated 2003).
“Also recorded” adds a separate entry of the source.

Each molecule was assayed on CPP32 (assay: Assay for dATP-dependent activation of CPP32 protease (cleavage of in vitro translated 35S-labeled CPP32 in HeLa S-100)). Conditions: 1 mM nucleotide, 30° C., 1 hr.
Assay type: biochemical, hamster
Method: The samples were subjected to SDS-PAGE and transferred to a nitrocellulose filter. The filter was exposed to film for 16 hours at room temperature. In FIG. 2B, a 50 μl aliquot of HeLa S-100 (250 μg) was incubated with each aliquot of 6 μl hamster liver nuclei at 37° C. for 2 hr in the presence of 1 mM indicated nucleotide. The DNA was isolated, analyzed by 2% agarose gel electrophoresis and visualized by ethidium bromide staining.
To test the nucleotide specificity for activation of CPP32 and DNA fragmentation, HeLa cell S-100 was incubated with in vitro translated, ^35S-labeled CPP32 in the presence of 1 mM of various nucleotides (FIG. 2A).
A PCR fragment encoding amino acids 29-277 of hamster CPP32 [Wang et al. (1996) supra] was cloned into NdeI and BamHI sites of pET 15b vector (Novagen, Madison, Wis.). The resulting fusion protein of six histidines with hamster CPP32 (amino acids 29-277) was translated in a TNT T7 transcription/translation kit (Promega, Madison, Wis.) in the presence of ^35S-methionine according to the manufacturer's instructions. The translated protein was passed through a 1 ml nickel affirmity column (Qiagen, Chatsworth, Calif.) equilibrated with buffer A. After washing the column with 10 ml of buffer A, the translated CPP32 was eluted with buffer A containing 250 mM imidazole. Human SREBP-2 was translated in a TNT SP6 transcription/translation kit as described [Wang et al. (1995) [Hua et al. (1993) Proc. Natl. Acad. Sci. USA 90, 11603-11607]. Full length human PARP cDNA [Chemey et al. (1987) Proc. Natl. Acad. Sci. USA 84, 8370-8374] was cloned into SmaI and EcoRI sites of pBK-CMV vector (Stratagene, La Jolla, Calif.) and translated in a TNT T7 transcription/translation kit [Promega, Madison, Wis.]. The translated SREBP-2 and PARP (200 μl each) were purified by passing each translation mixture through a 10-ml Sephadex G-25 gel-filtration column equilibrated with buffer A. The translated proteins contained within the exclusion volume of the column were collected.
CPP32 was translated and purified as described above. Aliquot of 3 μl of the in vitro translated CPP32 was incubated with the indicated protein fraction, nucleotides, and 1 mM additional MgCl2 at 30° C. for 1 hour in a final volume of 20 μl of buffer A. At the end of the incubation, 7 μl of 4×SDS sample buffer was added to each reaction. After boiling for 3 min, each sample was subjected to a 15% SDS-polyacrylamide gel electrophoresis (SDS-PAGE). The gel was transferred to a nitrocellulose filter which was subsequently exposed to a Kodak X-OMAT AR X-ray film (Eastman Kodak, Rochester, N.Y.) for 16 hr at room temperature.

SMILES	cleavage of 35S-labeled CPP32 (nucleotide specificity)
Nc1ncnc2c1ncn2[C@@H]1O[C@H](COP(=O)(O)OP(=O)(O)O)[C@@H](O)[C@H]1O [ADP]	did not replace dATP
Nc1ncnc2c1ncn2[C@@H]1O[C@H](COP(=O)(O)O)[C@@H](O)[C@H]1O [AMP]	did not replace dATP
Nc1ccn([C@@H]2O[C@H](COP(=O)(O)OP(=O)(O)OP(=O)(O)O)[C@@H](O)[C@H]2O)c(=O)n1 [CTP]	did not replace dATP
Nc1nc2c(ncn2[C@@H]2O[C@H](COP(=O)(O)OP(=O)(O)OP(=O)(O)O)[C@@H](O)[C@H]2O)c(=O)[nH]1 [GTP]	did not replace dATP
O=c1ccn([C@@H]2O[C@H](COP(=O)(O)OP(=O)(O)OP(=O)(O)O)[C@@H](O)[C@H]2O)c(=O)[nH]1 [UTP]	did not replace dATP
Nc1ncnc2c1ncn2[C@@H]1O[C@H](CO)[C@@H](O)[C@H]1O [adenosine]	did not replace dATP
Nc1ncnc2c1ncn2[C@H]1C[C@H](O)[C@@H](COP(=O)(O)OP(=O)(O)O)O1 [dADP]	Cleavage occurred; also recorded: can substitute for dATP
Nc1ncnc2c1ncn2[C@H]1C[C@H](O)[C@@H](COP(=O)(O)O)O1 [dAMP]	did not replace dATP
Nc1ccn([C@H]2C[C@H](O)[C@@H](COP(=O)(O)OP(=O)(O)OP(=O)(O)O)O2)c(=O)n1 [dCTP]	did not replace dATP
Nc1nc2c(ncn2[C@H]2C[C@H](O)[C@@H](COP(=O)(O)OP(=O)(O)OP(=O)(O)O)O2)c(=O)[nH]1 [dGTP]	did not replace dATP
Cc1cn([C@H]2C[C@H](O)[C@@H](COP(=O)(O)OP(=O)(O)OP(=O)(O)O)O2)c(=O)[nH]c1=O [dTTP]	did not replace dATP
Nc1ncnc2c1ncn2[C@H]1C[C@H](O)[C@@H](CO)O1 [deoxyadenosine]	did not replace dATP
